Test results: ChEMBL document CHEMBL1136440, “Design and synthesis of novel RXR-selective modulators with improved pharmacological profile” (Bioorg Med Chem Lett, 2003)
Several values for one entry are separate records, joined by “and”; a condition that tells them apart may be missing. Identical values can stand only once.

Legend:
[1] = Tmax value in IRC mice; assay type: ADME, organism-based; conditions: mouse, in vivo
[2] = Cmax value in IRC mice; assay type: ADME, organism-based; conditions: mouse, in vivo
[3] = Area under curve at 0-8 hr in IRC mice after peroral administration; assay type: ADME, organism-based; set-up: time < 8 hr, route oral; conditions: mouse, in vivo, po
[4] = target: T1, Retinoic acid receptor alpha (Homo sapiens) (UniProt P10276); test: Agonist synergy against RAR alpha was tested along with 3 nM TTNPB; assay type: functional; conditions: Cercopithecidae
T1 sequence (whole entry): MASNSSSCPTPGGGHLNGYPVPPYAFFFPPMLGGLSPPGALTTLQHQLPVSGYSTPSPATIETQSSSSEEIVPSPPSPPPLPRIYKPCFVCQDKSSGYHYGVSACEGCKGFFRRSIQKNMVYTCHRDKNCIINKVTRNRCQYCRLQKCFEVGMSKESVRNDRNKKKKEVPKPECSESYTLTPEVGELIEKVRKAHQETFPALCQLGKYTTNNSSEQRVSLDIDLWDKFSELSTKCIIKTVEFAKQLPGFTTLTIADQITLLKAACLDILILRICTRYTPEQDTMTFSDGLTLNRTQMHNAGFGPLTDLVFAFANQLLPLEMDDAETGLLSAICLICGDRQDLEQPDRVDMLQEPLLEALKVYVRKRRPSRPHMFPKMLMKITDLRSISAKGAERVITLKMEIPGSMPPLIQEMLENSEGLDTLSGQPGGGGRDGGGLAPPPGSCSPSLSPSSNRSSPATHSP

[5] = target: T2, Retinoic acid receptor RXR-beta (Homo sapiens, UniProt P28702); test: Displacement of [3H]9-cis-RA from RXR beta receptor in CV-1 cells; assay type: cell-based, Cercopithecidae
T2 sequence (P28702 whole entry): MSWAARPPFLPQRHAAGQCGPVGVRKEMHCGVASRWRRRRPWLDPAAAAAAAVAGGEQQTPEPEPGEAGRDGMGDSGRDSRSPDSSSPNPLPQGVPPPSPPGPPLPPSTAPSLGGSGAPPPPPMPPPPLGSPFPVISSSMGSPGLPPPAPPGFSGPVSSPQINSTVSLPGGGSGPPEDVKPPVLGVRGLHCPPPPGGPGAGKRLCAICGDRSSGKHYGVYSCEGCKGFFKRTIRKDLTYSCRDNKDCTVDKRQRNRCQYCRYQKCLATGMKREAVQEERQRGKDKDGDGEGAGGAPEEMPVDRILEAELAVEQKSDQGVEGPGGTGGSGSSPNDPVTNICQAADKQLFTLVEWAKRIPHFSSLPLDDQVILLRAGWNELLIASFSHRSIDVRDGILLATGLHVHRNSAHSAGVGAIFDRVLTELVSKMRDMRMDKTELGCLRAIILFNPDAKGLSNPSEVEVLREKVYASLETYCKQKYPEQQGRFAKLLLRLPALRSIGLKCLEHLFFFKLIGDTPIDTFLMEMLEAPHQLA

[6] = target: T3, Retinoic acid receptor alpha (Homo sapiens, UniProt P10276); test: Binding affinity against RAR alpha receptor using [3H]ATRA as radioligand in CV-1 cells; assay type: cell-based, Cercopithecidae
T3 sequence (P10276 whole entry): T1 sequence (whole entry)

[7] = target: T4, Retinoic acid receptor RXR-gamma (Homo sapiens, UniProt P48443); test: Binding affinity against RXR gamma receptor using [3H]9-cis-RA as radioligand in CV-1 cells; assay type: cell-based, Cercopithecidae
T4 sequence (P48443 whole entry): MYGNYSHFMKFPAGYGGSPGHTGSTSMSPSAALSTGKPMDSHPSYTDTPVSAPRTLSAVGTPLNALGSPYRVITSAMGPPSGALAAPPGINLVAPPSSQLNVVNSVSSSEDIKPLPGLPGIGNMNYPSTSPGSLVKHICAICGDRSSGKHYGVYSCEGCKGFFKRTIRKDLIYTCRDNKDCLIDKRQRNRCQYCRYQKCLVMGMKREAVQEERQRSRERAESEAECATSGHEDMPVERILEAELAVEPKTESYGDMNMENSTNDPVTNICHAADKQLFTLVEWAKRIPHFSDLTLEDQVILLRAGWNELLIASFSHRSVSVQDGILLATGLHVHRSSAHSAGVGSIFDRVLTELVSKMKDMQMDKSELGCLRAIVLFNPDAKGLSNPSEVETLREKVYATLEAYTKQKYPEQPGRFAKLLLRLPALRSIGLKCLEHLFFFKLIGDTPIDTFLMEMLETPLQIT

[8] = target: T5, Retinoic acid receptor gamma (Homo sapiens, UniProt P13631); test: Binding affinity against RAR gamma receptor using [3H]ATRA as radioligand in CV-1 cells; assay type: cell-based, Cercopithecidae
T5 sequence (P13631 whole entry): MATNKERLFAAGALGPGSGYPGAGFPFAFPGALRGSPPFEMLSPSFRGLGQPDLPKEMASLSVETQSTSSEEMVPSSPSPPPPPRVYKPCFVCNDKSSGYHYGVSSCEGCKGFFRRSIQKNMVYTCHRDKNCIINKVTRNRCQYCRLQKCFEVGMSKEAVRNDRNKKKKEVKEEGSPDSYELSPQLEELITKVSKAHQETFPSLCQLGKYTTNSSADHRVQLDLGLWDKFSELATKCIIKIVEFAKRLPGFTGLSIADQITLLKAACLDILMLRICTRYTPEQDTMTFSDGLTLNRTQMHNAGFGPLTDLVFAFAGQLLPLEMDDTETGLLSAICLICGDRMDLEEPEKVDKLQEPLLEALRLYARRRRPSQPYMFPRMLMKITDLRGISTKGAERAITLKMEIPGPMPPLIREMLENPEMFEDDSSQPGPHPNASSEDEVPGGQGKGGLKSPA

[9] = target: T6, Peroxisome proliferator-activated receptor gamma (Homo sapiens, UniProt P37231)
T6 sequence (P37231 whole entry): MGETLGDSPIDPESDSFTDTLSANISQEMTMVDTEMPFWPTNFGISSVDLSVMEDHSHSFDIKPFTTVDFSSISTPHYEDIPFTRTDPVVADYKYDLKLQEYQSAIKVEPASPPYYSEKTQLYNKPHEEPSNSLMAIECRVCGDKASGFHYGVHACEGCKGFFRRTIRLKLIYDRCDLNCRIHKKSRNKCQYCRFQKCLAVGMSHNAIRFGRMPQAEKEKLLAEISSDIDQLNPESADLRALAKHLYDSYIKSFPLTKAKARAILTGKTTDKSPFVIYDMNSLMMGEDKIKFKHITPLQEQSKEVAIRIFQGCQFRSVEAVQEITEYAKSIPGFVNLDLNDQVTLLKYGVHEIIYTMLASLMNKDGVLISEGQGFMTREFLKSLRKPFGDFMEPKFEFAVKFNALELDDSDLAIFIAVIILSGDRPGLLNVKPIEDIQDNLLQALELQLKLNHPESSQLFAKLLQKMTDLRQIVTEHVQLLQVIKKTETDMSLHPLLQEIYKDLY
Description: In vitro agonist efficacy against PPAR gamma along with 100 nM BRL-49653

| SMILES | Tmax [1] [h] | Cmax [2] | AUC(0-t) at 8 h [3] [ng·h/mL] | Synergy [4] [nM] | Ki [5] [nM] | Ki [6] [nM] | Ki [7] [nM] | Ki [8] [nM] | EC50 [9] [nM] |
| --- | --- | --- | --- | --- | --- | --- | --- | --- | --- |
| CCOc1c(\C(C)=C/C=C/C(C)=C/C(=O)O)cc(C(F)(F)C(F)(F)F)cc1C(C)C | 1 | 4430 ng/mL and 10.2 µM | 14400 | 2.8 | 8.5 | > 10000 | 7.7 | > 10000 | 99 |
| C/C(=C/C=C/C(C)=C/C(=O)O)c1cc(-c2ccccc2F)cc(C(C)C)c1OCC(F)F | 1 | 4140 ng/mL and 9.31 µM | 15200 | 1.5 | 16 | 6760 | 10.9 | 8760 | 46 |
